# Measurements taken from US20150018403A1, “FLUORENE-AMIDE COMPOUNDS AND PHARMACEUTICAL USE THEREOF” (JAPAN TOBACCO INC., priority 2013, published 2015).
# Assays:
# hERG = target: T1, hERG (Homo sapiens, UniProt Q12809); assay: hERG whole cell patch clamp test; assay type: cell-based; conditions: human, HEK293 cells transfected with hERG, pH 7.4, read-out: hERG inhibition rate (%); for inhibition at 3 μmol/L: concentration 3 μmol/L; for inhibition at 30 μmol/L: concentration 30 μmol/L
# T1 construct: host or cells: HEK293
# Experimental: (§1) Using human ether-a-go-go related gene (hERG)-transfected HEK293 cells (Cytomyx Limited), an influence on hERG current was examined according to the whole cell patch clamp technique. The hERG-transfected HEK293 cells were passaged using a CO2 incubator (BNA-111, TABAI ESPEC CORP.) under the set conditions of 37° C., 5% CO2, saturated humidity. Culture containers used were Collagen Type I Coated 75 cm^2 flask (4123-010, AGC TECHNO GLASS CO., Ltd.) and Collagen Type I Coated 35 mm culture dish (4000-010, AGC TECHNO GLASS CO., Ltd.). The culture medium used was E-MEM (Eagle Minimum Essential Medium (Earle's Salts, Nikken biomedical laboratory) added with 10% FCS (Fetal bovine serum, BioWest, L.L.C.) and 1% MEM Non-Essential Amino Acids Solution (NEAA, Invitrogen Corporation). Geneticin for the selection of hERG gene expressing cells was added thereto to a concentration of 400 μg/mL. As the cells for the measurement, 3×10^4 hERG-transfected HEK293 cells were plated on a 35 mm culture dish 4 to 7 days before measurement of the hERG current. The culture dish produced for the measurement contained the above-mentioned culture medium without geneticin (Invitrogen Corporation).
# (§2) The highest evaluation concentration of each compound was determined from the highest concentration at which precipitation was not found in the standard extracellular fluid (NaCl: 140 mmol/L, KCl: 2.5 mmol/L, MgCl2: 2 mmol/L, CaCl2: 2 mmol/L, HEPES: 10 mmol/L, glucose: 10 mmol/L (adjusted to pH 7.4 with Tris-base)). As the application method, each solution to be applied was ejected from a Y-tube having a tip diameter of about 0.25 mm, which was adjacent (about 2 mm) to the cells, and applied to the cells. The ejection rate was about 0.4 mL/min.
# (§3) The experiment was performed at room temperature under a phase contrast microscope. The 35 mm culture dish plated with the cells was set on a measurement apparatus, and the standard extracellular fluid was continuously applied to the cells from the Y-tube. A glass electrode for the measurement was filled with an intracellular fluid (Potassium Gluconate: 130 mmol/L, KCl: 20 mmol/L, MgCl2: 1 mmol/L, ATP-Mg: 5 mmol/L, EGTA: 3.5 mmol/L, HEPES: 10 mmol/L (adjusted to pH 7.2 with Tris-base)). A conventional whole cell patch clamp method was applied to the cells, and the maintenance electric potential was set to −80 mV. Under a fixed electric potential, the whole cell current was amplified by an amplifier for patch clamp (AXOPATCH-200B, Axon Instruments, Inc.), and the data was loaded into a computer (IMC-P642400, Intermedical Co., Ltd.) using a data acquisition analysis software (pCLAMP 9.2, Axon Instruments, Inc.).
# (§4) The measurement of the hERG current was performed in the following two steps. In both cases, the hERG current was initiated by giving a command potential (maintenance electric potential −80 mV, prepulse+20 mV, 1.5 sec, test-pulse −50 mV, 1.5 sec).
# (§5) Step (1): The above-mentioned command potential was given at 0.1 Hz for 2 min.
# (§6) Step (2): The above-mentioned command potential was subjected to P/3 subtraction of pCLAMP 9.2 to remove leak current. This was repeated three times and an average thereof was taken as hERG current.
# (§7) Subsequent to step (1), Step (2) was performed (about 3 min), and the maximum tail current obtained by applying a test-pulse to the hERG current obtained by the method of step (2) was taken as hERG current value. Hereafter, the operations of (1) and (2) were alternately repeated until completion of the experiment and the hERG current value was measured.
# (§8) Stable hERG current value was recorded three times (about 10 min), and the standard extracellular fluid was instantaneously exchanged with each application fluid. The hERG current value was measured three times (about 10 min) in the same manner during perfusion of the application fluid, and the current value obtained by the 3rd measurement was taken as hERG current value after perfusion of the application fluid. […]
# [1] = target: T2, hERG current (hERG-transfected HEK293 cells) (Homo sapiens, UniProt Q12809); assay: hERG whole cell patch clamp test; assay type: cell-based; conditions: whole cell patch clamp, hERG-transfected HEK293 cells
# T2 construct: host or cells: HEK293
# Experimental: as §1, §2, §3, §4, §5, §6, §7, §8
# [2] = Metabolic stability test in human liver microsome; assay type: in vitro ADME; conditions: 37° C., 5 μM
# Experimental: Human liver microsome (manufactured by Xenotech, H0620, final concentration (after dilution), 0.2 mg protein/mL) was suspended in 100 mM potassium phosphate buffer (pH 7.4, containing β-nicotinamide adenine dinucleotide phosphate: 1.3 mM, D-glucose-6-phosphate: 3.3 mM, magnesium chloride: 3.3 mM, glucose-6-phosphate dehydrogenase: 0.45 U/mL), and further mixed with a test compound dissolved in MeCN/DMSO (95/5) (final concentration 5 μM). The mixture was incubated at 37° C. for 10 min and 60 min, acetonitrile containing formic acid (final concentration 0.1%) was added, and the mixture was centrifuged. The test compound (unmodified) in the supernatant was measured by high performance liquid chromatography/mass spectrometry (LC/MS) (manufactured by Waters, LC: Acquity UPLC, MS:SQ Detector or TQ Detector). The residual ratio (%) was calculated from the obtained measurement value.
# [3] = Metabolic stability test in rat liver microsome; assay type: in vitro ADME
# human PDHK2 (hPDHK2) = target: T3, human PDHK2 (hPDHK2) (Homo sapiens, UniProt Q15119); assay: Inhibitory action of PDHK2 activity in vitro (residual PDH activity after kinase reaction); assay type: biochemical; conditions: PDH/hPDHK2 complex, 45 min kinase reaction at room temperature; read-out: hPDHK2 IC50
# T3 construct: made in house; host or cells: Escherichia coli BL21(DE3), pET17b vector
# Experimental: The inhibitory action of PDHK activity was assessed indirectly by measuring the residual PDH activity after kinase reaction in the presence of a test compound.
# In the case of human PDHK2 (hPDHK2, Genbank Accession No. BC040478.1), modified hPDHK2 cDNA wherein FLAG-Tag sequence was added to the N terminus of hPDHK2 cDNA clone (pReceiver-M01/PDK2-GeneCopoeia) was prepared by PCR and cloned into a vector (pET17b-Novagen). The recombinant construct was transformed into Escherichia coli (DH5α-TOYOBO). The recombinant clones were identified, and plasmid DNA was isolated and subjected to the DNA sequence analysis. One clone which had the expected nucleic acid sequence was selected for expression work.
# For expression of hPDHK2 activity, Escherichia coli strain BL21(DE3) cells (Novagen) were transformed with the pET17b vector containing modified hPDHK2 cDNA. The Escherichia coli were grown to an optical density 0.6 ([…]) at 30° C. Protein expression was induced by the addition of 500 μmol/L isopropyl-β-thiogalactopyranoside. The Escherichia coli were cultured at 30° C. for 5 hr and harvested by centrifugation. Resuspension of the Escherichia coli paste was disrupted by a microfluidizer. FLAG-Tagged protein was purified using FLAG affinity gel. The gel was washed with 20 mmol/L HEPES-NaOH, 500 mmol/L sodium chloride, 1% ethylene glycol, and 0.1% Pluronic F-68 (pH 8.0), and the binding protein was eluted with 20 mmol/L HEPES-NaOH, 100 μg/mL FLAG peptide, 500 mmol/L sodium chloride, 1% ethylene glycol, and 0.1% Pluronic F-68 (pH 8.0). The eluted fractions containing FLAG-Tagged protein were pooled, dialyzed against 20 mmol/L HEPES-NaOH, 150 mmol/L sodium chloride, 0.5 mmol/L EDTA, 1% ethylene glycol, and 0.1% Pluronic F-68 (pH 8.0), and preserved at −80° C.
# 0.05 U/mL PDH and 0.8 μg/mL hPDHK2 were mixed in a buffer (50 mmol/L 3-morpholinopropanesulfonic acid (pH 7.0), 20 mmol/L dipotassium hydrogen phosphate, 60 mmol/L potassium chloride, 2 mmol/L magnesium chloride, 0.4 mmol/L EDTA, and 0.2% Pluronic F-68, 2 mmol/L dithiothreitol), and the mixture was incubated at 4° C. overnight to obtain a PDH/hPDHK2 complex. The test compounds were diluted with DMSO. […] DMSO (1.5 μL) was added to control wells instead of the test compound. […] The mixture was incubated at room temperature for 90 min, and the residual PDH activity was measured. The absorbance at 340 nm before and after PDH reaction was measured using a microplate reader to detect NADH produced by the PDH reaction. The hPDHK2 inhibition rate (%) of the test compound was calculated from the formula [{(PDH activity of test compound−PDH activity of control)/PDH activity of blank−PDH activity of control)}×100].
# tissue PDH activity = assay: Ex vivo PDH activation assay (liver and epididymal adipose tissue mitochondrial fractions after oral dosing); assay type: in vivo, Sprague-Dawley rats; conditions: 3 mg/kg, rat
# Experimental: The action of test compound on tissue PDH activity was evaluated. NADH production was detected via p-iodonitrotetrazolium violet (INT)-coupled system to measure PDH activity.
# Normal male Sprague-Dawley rats were randomly allocated m to the vehicle group and the test compound groups. The vehicle (0.5% aqueous methylcellulose solution, 5 mL/kg) or the test compound was orally administered to the rats. At 5 or 20 hr after administration, the rats were anesthetized with an intraperitoneal injection of sodium pentobarbital (60 mg/kg), and liver slices and epididymal adipose tissues were collected.
# (§9) To the liver slices were rapidly added 9 volumes of ice-cold homogenization buffer (0.25 mol/L sucrose, 5 mmol/L tris(hydroxymethyl)aminomethane hydrochloride (pH 7.5), 2 mmol/L EDTA), and the mixtures were homogenized using a Polytron homogenizer. The homogenates were centrifuged at 600×g, 4° C. for 10 min to obtain the supernatant. The supernatants (1 mL) were centrifuged at 16,000×g, 4° C. for 10 min to collect the precipitates. The precipitates were washed by resuspension in the homogenization buffer (1 mL) and centrifuged in the same manner. The precipitates were frozen with liquid nitrogen and stored at −80° C. as the liver mitochondrial fraction.
# as §9, with “adipose tissues” for “liver slices”, “3” for “9”, “of an” for “of”, “buffer,” for “buffer (0.25 mol/L sucrose, 5 mmol/L tris(hydroxymethyl)aminomethane hydrochloride (pH 7.5), 2 mmol/L EDTA),”, “supernatants” for “supernatants (1 mL)”, “adipose tissue” for “liver”
# The mitochondrial fractions were thawed and suspended with the sample buffer (0.25 mol/L sucrose, 20 mmol/L tris(hydroxymethyl)aminomethane hydrochloride (pH 7.5), 50 mmol/L potassium chloride, and 1 mL/L 4-(1,1,3,3-tetramethylbutyl)phenyl-polyethylene glycol (Triton X-100)). Active PDH activity (PDHa activity) and total PDH activity (PDHt activity) were measured to evaluate the PDH activity. For the measurement of the PDHt activity, equal amounts of the mitochondrial suspension and the activation buffer (0.25 mol/L sucrose, 20 mmol/L tris(hydroxymethyl)aminomethane hydrochloride (pH 7.5), 50 mmol/L potassium chloride, 1 mL/L Triton X-100, 4 mmol/L calcium chloride, 40 mmol/L magnesium chloride, 10 mmol/L sodium dichloroacetate) were mixed, and the mixtures were incubated at 37° C. for 10 min. Forty microliters of the mitochondrial suspensions diluted with a sample buffer were added to a 96-well microplate for activity measurement and blank measurement. Then 180 μL of the reaction mixture (0.056 mmol/L potassium phosphate buffer (pH 7.5), 5.6 mmol/L DL-carnitine, 2.8 mmol/L NAD, 0.22 mmol/L thiamin pyrophosphate, 0.11 mmol/L Coenzyme A, 1.1 mL/L Triton X-100, 1.1 mmol/L magnesium chloride, 1.1 g/L bovine serum albumin, 0.67 mmol/L INT, 7.2 μmol/L phenazine methosulfate, 28 mmol/L sodium oxamate) was added to each well, and then 20 μL of 50 mmol/L sodium pyruvate for activity measurement or water for blank measurement were added. The mixtures were incubated at room temperature under shading. The absorbances at 500-750 nm, which were attributable to reduction of INT, the final electron acceptor, were measured using a microplate reader over time and the changes in the absorbance were calculated. The PDH activity was calculated by subtraction of the change in absorbance of the blank well from that of the activity measurement well. The percentage of the PDHa activity to the PDHt activity was calculated and taken as an index of the PDH activation.
# T1 sequence (Q12809 whole entry): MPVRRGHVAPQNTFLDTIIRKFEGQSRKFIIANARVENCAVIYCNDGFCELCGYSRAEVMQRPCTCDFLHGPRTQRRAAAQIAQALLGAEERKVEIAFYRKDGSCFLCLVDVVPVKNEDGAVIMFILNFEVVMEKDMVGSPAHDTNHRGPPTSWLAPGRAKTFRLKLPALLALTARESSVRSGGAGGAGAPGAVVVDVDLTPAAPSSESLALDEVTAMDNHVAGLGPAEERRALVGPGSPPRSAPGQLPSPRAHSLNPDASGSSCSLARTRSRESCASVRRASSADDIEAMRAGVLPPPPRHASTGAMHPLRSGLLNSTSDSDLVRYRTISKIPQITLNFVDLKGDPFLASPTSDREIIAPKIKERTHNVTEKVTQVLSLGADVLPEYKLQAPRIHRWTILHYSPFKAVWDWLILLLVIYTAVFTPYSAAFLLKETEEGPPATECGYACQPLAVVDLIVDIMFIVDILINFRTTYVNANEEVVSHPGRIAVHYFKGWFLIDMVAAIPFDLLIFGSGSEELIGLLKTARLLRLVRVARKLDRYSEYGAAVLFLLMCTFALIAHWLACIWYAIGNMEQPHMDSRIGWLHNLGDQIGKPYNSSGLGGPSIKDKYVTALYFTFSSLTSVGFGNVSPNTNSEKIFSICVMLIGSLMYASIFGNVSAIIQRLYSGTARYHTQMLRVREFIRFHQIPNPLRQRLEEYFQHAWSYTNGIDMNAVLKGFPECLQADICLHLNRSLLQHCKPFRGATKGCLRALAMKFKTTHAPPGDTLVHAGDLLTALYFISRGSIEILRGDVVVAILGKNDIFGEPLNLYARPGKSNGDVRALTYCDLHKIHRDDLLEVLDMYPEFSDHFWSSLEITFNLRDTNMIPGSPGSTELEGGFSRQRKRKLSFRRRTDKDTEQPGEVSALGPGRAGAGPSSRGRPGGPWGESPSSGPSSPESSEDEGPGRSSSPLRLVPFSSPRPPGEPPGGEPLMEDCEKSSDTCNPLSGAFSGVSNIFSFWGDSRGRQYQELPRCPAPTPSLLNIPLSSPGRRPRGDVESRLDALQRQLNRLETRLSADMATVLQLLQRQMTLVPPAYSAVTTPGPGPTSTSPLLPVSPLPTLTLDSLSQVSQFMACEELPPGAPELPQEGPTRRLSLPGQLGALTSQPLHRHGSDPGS
# T2 sequence (Q12809 whole entry): as above
SMILES,inhibition at 3 μmol/L (hERG) [%],inhibition at 30 μmol/L (hERG) [%],IC50 [1] [µM],stability in liver microsome (residual ratio %) ([2]; 10 min) [%],stability in liver microsome (residual ratio %) ([2]; 60 min) [%],stability in liver microsome (residual ratio %) ([3]; 10 min) [%],stability in liver microsome (residual ratio %) ([3]; 60 min) [%],IC50 (human PDHK2 (hPDHK2)) [µM],"PDHa activity (% PDHt activity) (tissue PDH activity; adipose tissue, 5 hr after oral administration)","PDHa activity (% PDHt activity) (tissue PDH activity; adipose tissue, 20 hr after oral administration)","PDHa activity (% PDHt activity) (tissue PDH activity; liver, 5 hr after oral administration)","PDHa activity (% PDHt activity) (tissue PDH activity; liver, 20 hr after oral administration)"
"CC(C)(C(N)=O)n1cc(-c2cc(F)cc3c2-c2ccccc2[C@]3(O)C(F)(F)F)cn1 [compound (D), 2-{4-[(9R)-2-Fluoro-9-hydroxy-9-(trifluoromethyl)-9H-fluoren-4-yl]-1H-pyrazol-1-yl}-2-methylpropanamide]",9.4,67.5,14.2,,,,,,,,,
"CC(C)(O)COc1cc(-c2cnn(CCO)c2)c2c(c1)[C@@](O)(C(F)(F)F)c1ccccc1-2 [compound (C), (9R)-4-[1-(2-Hydroxyethyl)-1H-pyrazol-4-yl]-2-(2-hydroxy-2-methylpropoxy)-9-(trifluoromethyl)-9H-fluoren-9-ol]",11.5,69,13.2,,,,,,,,,
"C[C@@H](O)COc1cc(-c2cnn(C(C)(C)C(N)=O)c2)c2c(c1)[C@@](O)(C(F)(F)F)c1ccccc1-2 [compound (3), 2-(4-{(9R)-9-hydroxy-2-[(2R)-2-hydroxypropoxy]-9-(trifluoromethyl)-9H-fluoren-4-yl}-1H-pyrazol-1-yl)-2-methylpropanamide]",,,,98.3,99.7,99.2,99.8,0.0047,59 ± 8,54,74 ± 11,42
